Results reported in patent US20060286182A1, “Synergistic cinnamon combinations and methods for enhancing insulin activity” (Abeille Pharmaceuticals, Inc., priority 2005, published 2006).

System: 3T3-L1 adipocytes
Assay: Oil Red O staining of triglyceride content (lipogenesis) in differentiating 3T3-L1 adipocytes
Format: cell-based, murine
Conditions: for increase in triglyceride content (lipogenic/adipogenic increase) relative to the solvent control: 50 μg test material/mL, Day 0 to Day 7 of differentiation
From the text: The Model—The 3T3-L1 murine fibroblast model is used to study the potential effects of compounds on adipocyte differentiation and adipogenesis.
As preadipocytes, 3T3-L1 cells have a fibroblastic appearance. They replicate in culture until they form a confluent monolayer, after which cell-cell contact triggers Go/G1 growth arrest. Terminal differentiation of 3T3-L1 cells to adipocytes depends on proliferation of both pre- and postconfluent preadipocytes. Subsequent stimulation with 3-isobutyl-1-methylxanthane, dexamethasone, and high dose of insulin (MDI) for two days prompts these cells to undergo postconfluent mitotic clonal expansion, exit the cell cycle, and begin to express adipocyte-specific genes. Approximately five days after induction of differentiation, more than 90% of the cells display the characteristic lipid-filled adipocyte phenotype.
Cell culture and Treatment—The murine fibroblast cell line 3T3-L1 was obtained from the American Type Culture Collection (Manasus, Va.) and sub-cultured according to instructions from the supplier. For experiments, cells were cultured in DMEM containing 10% FBS-HI, with added 50 units penicillin/mL and 50 μg streptomycin/mL, and maintained in log phase prior to experimental setup. Cells were grown in a 5% CO2 humidified incubator at 37° C. Components of the pre-confluent medium included (1) 10% FBS/DMEM containing 4.5 g glucose/L; (2) 50 U/mL penicillin; and (3) 50 μg/mL streptomycin. Growth medium was made by adding 50 mL of heat inactivated FBS and 5 mL of penicillin/streptomycin to 500 mL DMEM. This medium was stored at 4° C. Before use, the medium was warmed to 37° C. in a water bath.
3T3-T1 cells were seeded at an initial density of about 4×10^4 cells/cm^2 in 24-well plates. For two days, the cells were allowed to grow to reach confluence. Following confluence, the cells were forced to differentiate into adipocytes by the addition of differentiation medium; this medium consisted of (1) 10% FBS/DMEM (high glucose); (2) 0.5 mM methylisobutylxanthine; (3) 0.5 μM dexamethasone and (4) 10 Hg/mL insulin. After three days, the medium was changed to post-differentiation medium consisting of 10 μg/mL insulin in 10% FBS/DMEM.
Test material was added in dimethyl sulfoxide at Day 0 of differentiation and every two days throughout the maturation phase (Day 7). Whenever fresh media was added, fresh test material was also added. As a positive control, troglitazone was added to achieve a final concentration of 4.4 μg/mL (10 μM). Metformin, Sample A and the metformin/Sample A combinations of 1:10, 1:5 and 1:2.5 were all tested at 50 μg test material/mL. Metformin, Sample B and the metformin/Sample B combination of 1:10 were all tested at 50 μg test material/mL.

Structure (SMILES) | increase in triglyceride content (lipogenic/adipogenic increase) relative to the solvent control | increase in triglyceride content of the 3T3-L1 cells (positive control, 4.4 μg/mL (10 μM), Day 0 to Day 7, relative to solvent control) | increase in triglyceride content (lipogenic/adipogenic increase) relative to the solvent control (listed as glipizide)
CN(C)C(=N)N=C(N)N [metformin] | four |  | 
Cc1c(C)c2c(c(C)c1O)CCC(C)(COc1ccc(CC3SC(=O)NC3=O)cc1)O2 (stereo not shown) [Troglitazone, troglitazone] |  | 54% | 
Cc1cnc(C(=O)NCCc2ccc(S(=O)(=O)NC(=O)NC3CCCCC3)cc2)cn1 [Glipizide] | 40% |  | increased triglyceride biosynthesis
